Values quoted from earlier work, collected in patent publication US20240401031A1, “Platform Using iPSC-Derived Cardiomyocytes Carrying Gene Variants as Models of Cardiac Disease and Drug-Response” (SRI INTERNATIONAL, priority 2021, published 2024).

conditions: source CredibleMeds

Structure (SMILES) | Risk (Torsade de Pointes)
CC(CN(C)C)CN1c2ccccc2CCc2ccccc21 (centres unmarked) [Trimipramine] | (PR)
COc1cc2c(cc1OC)[C@H]1C[C@@H](OC(=O)[C@@H](N)C(C)C)[C@H](CC(C)C)CN1CC2 [Valbenazine] | (PR)
C=C/C=C/C[C@@H](C)[C@@H](O)[C@H]1C(=O)N[C@@H](CC)C(=O)N(C)CC(=O)N(C)[C@@H](CC(C)C)C(=O)N[C@@H](C(C)C)C(=O)N(C)[C@@H](CC(C)C)C(=O)N[C@@H](C)C(=O)N[C@H](C)C(=O)N(C)[C@@H](CC(C)C)C(=O)N(C)[C@@H](CC(C)C)C(=O)N(C)[C@@H](C(C)C)C(=O)N1C [Voclosporin] | (PR)
O=C(CCCCCCC(=O)Nc1ccccc1)NO [Vorinostat] | (PR)
Cc1cc(C(C)(C)C)cc(C)c1CC1=NCCN1 [Xylometazoline] | (SR)

More lines, now with the values ahead:

Risk (Torsade de Pointes) | Structure (SMILES)
(CR) | O=c1n(CCCN2CCN(c3cccc(Cl)c3)CC2)nc2ccccn12 [Trazodone]
(PR) | CN1[C@@H]2CC[C@H]1C[C@@H](OC(=O)c1c[nH]c3ccccc13)C2 [Tropisetron]
(KR) | COc1cc2c(Nc3ccc(Br)cc3F)ncnc2cc1OCC1CCN(C)CC1 [Vandetanib]
(PR) | CCCS(=O)(=O)Nc1ccc(F)c(C(=O)c2c[nH]c3ncc(-c4ccc(Cl)cc4)cc23)c1F [Vemurafenib]
(CR) | O=C1Cc2cc(CCN3CCN(c4nsc5ccccc45)CC3)c(Cl)cc2N1 [Ziprasidone]
(PR) | OCCN1CCN(CC/C=C2/c3ccccc3Sc3ccc(Cl)cc32)CC1 [Zuclopenthixol]
